Tests used:
[1] = target: T1, 5-hydroxytryptamine receptor 2C (Homo sapiens, UniProt P28335); assay: Binding affinity to human 5HT2C receptor
T1 sequence (P28335 whole entry): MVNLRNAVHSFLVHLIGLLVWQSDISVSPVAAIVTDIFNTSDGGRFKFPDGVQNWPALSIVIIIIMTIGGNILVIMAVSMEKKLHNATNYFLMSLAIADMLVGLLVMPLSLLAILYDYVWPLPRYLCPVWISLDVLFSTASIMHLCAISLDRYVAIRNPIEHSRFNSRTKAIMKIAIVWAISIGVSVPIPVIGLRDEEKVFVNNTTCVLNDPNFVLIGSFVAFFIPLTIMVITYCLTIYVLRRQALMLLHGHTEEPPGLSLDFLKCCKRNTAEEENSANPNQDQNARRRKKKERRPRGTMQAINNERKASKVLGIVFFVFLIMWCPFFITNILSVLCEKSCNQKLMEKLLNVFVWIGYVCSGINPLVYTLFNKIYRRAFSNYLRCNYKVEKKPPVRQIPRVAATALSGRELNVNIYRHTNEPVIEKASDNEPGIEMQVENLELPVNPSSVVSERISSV

[2] = target: 5-hydroxytryptamine receptor 2B (Homo sapiens, UniProt P41595); assay: Binding affinity to human 5HT2B receptor
Sequence of 5-hydroxytryptamine receptor 2B (P41595 whole entry): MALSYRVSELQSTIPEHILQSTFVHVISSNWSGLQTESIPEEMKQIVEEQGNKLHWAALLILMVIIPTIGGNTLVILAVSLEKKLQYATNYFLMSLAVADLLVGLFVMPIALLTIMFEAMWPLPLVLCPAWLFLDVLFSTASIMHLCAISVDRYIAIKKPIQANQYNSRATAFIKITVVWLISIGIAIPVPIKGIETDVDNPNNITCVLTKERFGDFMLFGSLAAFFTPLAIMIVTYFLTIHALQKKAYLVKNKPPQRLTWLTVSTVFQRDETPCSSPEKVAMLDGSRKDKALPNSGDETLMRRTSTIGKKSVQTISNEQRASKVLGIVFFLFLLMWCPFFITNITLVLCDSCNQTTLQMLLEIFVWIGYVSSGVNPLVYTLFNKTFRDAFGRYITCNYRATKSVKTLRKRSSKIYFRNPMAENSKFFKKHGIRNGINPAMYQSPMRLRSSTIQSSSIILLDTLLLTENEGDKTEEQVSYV

[3] = target: 5-hydroxytryptamine receptor 2A (Homo sapiens, UniProt P28223); assay: Binding affinity to human 5HT2A receptor
Sequence of 5-hydroxytryptamine receptor 2A (P28223 whole entry): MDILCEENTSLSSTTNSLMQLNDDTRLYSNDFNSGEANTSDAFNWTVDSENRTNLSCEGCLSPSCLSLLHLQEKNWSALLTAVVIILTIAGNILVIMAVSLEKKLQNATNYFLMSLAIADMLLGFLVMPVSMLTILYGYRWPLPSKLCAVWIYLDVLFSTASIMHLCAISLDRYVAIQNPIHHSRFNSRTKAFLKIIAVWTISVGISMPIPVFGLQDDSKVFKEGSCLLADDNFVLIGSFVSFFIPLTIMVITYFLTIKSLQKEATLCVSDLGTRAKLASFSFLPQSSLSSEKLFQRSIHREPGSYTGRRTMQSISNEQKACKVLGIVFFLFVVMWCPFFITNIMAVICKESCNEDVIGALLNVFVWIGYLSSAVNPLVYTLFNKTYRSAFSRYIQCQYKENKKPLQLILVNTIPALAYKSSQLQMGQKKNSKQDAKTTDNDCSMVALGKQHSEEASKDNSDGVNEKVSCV

Row | SMILES | Ki [1] | Ki [2] | Ki [3] | Log Ki [2]
1 | COc1ccc(N2CC=C(c3cccc(C(F)(F)F)c3)C2=O)cc1OCCN1CCCCC1 | 5.01 nM | > 794 nM | 794 nM | 
2 | COc1ccc(N2CC=C(c3ccc(F)cc3)C2=O)cc1OCCN1CCC(C)CC1 | 3.16 nM | 1260 nM | 251 nM | 
3 | COc1ccc(C2CCN(c3cccc(F)c3)C2=O)cc1OCCN1CCCCC1 (stereo unspecified) | 20 nM | > 794 nM | > 1260 nM | 
4 | COc1ccc(C2CCN(c3ccc(Cl)c(Cl)c3)C2=O)cc1OCCN1CCCCC1 (stereo unspecified) | 10 nM | 398 nM | 794 nM | 
5 | COc1ccc(N2CC=C(c3ccc(Br)cc3)C2=O)cc1OCCN1CCCCC1 | 1.26 nM | 200 nM | 158 nM | 
6 | COc1ccc(C2=C(C)CN(c3ccc(Cl)cc3)C2=O)cc1OCCN1CCCCC1 | 200 nM | 501 nM | 398 nM | 
7 | O=C1C(c2ccc(Cl)c(Cl)c2)=CCN1c1ccc(N2CCCC2)c(OCCN2CCCCC2)c1 | 200 nM | > 10000 nM | > 1260 nM | 
8 | COc1ccc(N2CCC(c3ccc(OC)c(OCCN4CCCCC4)c3)C2=O)cc1 (stereo unspecified) | 100 nM | > 10000 nM | > 10000 nM | 
9 | COc1ccc(N2CCC(c3ccc(Cl)c(Cl)c3)C2=O)cc1OCCN1CCC(C(C)C)CC1 (stereo unspecified) | 25.1 nM | > 1000 nM | 398 nM | 
10 | COc1ccc(C2=CCN(c3cccc(F)c3)C2=O)cc1OCCN1CCCCC1 | 6.31 nM | 501 nM | 1000 nM | 
11 | COc1ccc(N2CC=C(c3ccc(C)cc3)C2=O)cc1OCCN1CCCCC1 | 0.316 nM | > 1000 nM | > 1000 nM | 
12 | O=C1C(c2ccc(Cl)c(Cl)c2)CCN1c1ccc(Cl)c(OCCN2CCCCC2)c1 (stereo unspecified) | 100 nM | > 1580 nM | > 1000 nM | 
13 | COc1ccc(N2CC=C(c3ccc(Cl)c(F)c3)C2=O)cc1OCCN1CCC(C)CC1 | 7.94 nM | > 2000 nM | > 1260 nM | 
14 | COc1ccc(N2CC=C(c3cccc(F)c3)C2=O)cc1OCCN1CCCCC1 | 0.794 nM | 501 nM | 631 nM | 
15 | COc1ccc(N2CC=C(c3ccc(Cl)c(Cl)c3)C2=O)cc1OCCN1CCOCC1 | 6.31 nM | > 1580 nM | 3980 nM | 
16 | COc1ccc(N2CC=C(c3ccc(OC)c(OCCN4CCCCC4)c3)C2=O)cc1 | 10 nM | > 2000 nM | > 5010 nM | 
17 | COc1ccc(N2CC=C(c3cccc(Cl)c3)C2=O)cc1OCCN1CCCCC1 | 2.51 nM | 631 nM | 631 nM | 
18 | COc1ccc(C2=C(C)CN(c3ccc(Cl)c(Cl)c3)C2=O)cc1OCCN1CCCCC1 | 126 nM | 200 nM | 501 nM | 
19 | COc1ccc(N2CCC(c3ccc(OC)c(OCCN4CCCCC4)c3)C2=O)cc1Cl (stereo unspecified) | 20 nM | 1580 nM | > 2000 nM | 
20 | COc1ccc(N2CC=C(c3ccc(C(F)(F)F)cc3)C2=O)cc1OCCN1CCCCC1 | 12.6 nM | > 1000 nM | > 1260 nM | 
21 | COc1ccc(N2CCC(c3cccc(Cl)c3)C2=O)cc1OCCN1CCCCC1 (stereo unspecified) | 25.1 nM | > 1000 nM | > 1000 nM | 
22 | Cc1ccc(N2CCC(c3ccc(Cl)c(Cl)c3)C2=O)cc1OCCN1CCCCC1 (stereo unspecified) | 398 nM | > 1580 nM | > 1580 nM | 
23 | COc1ccc(N2CC=C(c3ccc(Cl)c(Cl)c3)C2=O)cc1OCCN1CCC(F)(F)CC1 | 7.94 nM | > 5010 nM | > 5010 nM | 
24 | COc1ccc(N2CC=C(c3ccc(Br)cc3)C2=O)cc1OCCN1CCC(C)CC1 | 3.98 nM |  | 398 nM | > -6.2
25 | COc1ccc(N2CC=C(c3ccc(Cl)c(Cl)c3)C2=O)cc1OCCN1CCCC1 | 3.98 nM | > 1580 nM | 631 nM | 
26 | Cc1ccc(N2CC=C(c3ccc(Cl)c(Cl)c3)C2=O)cc1OCCN1CCCCC1 | 126 nM | > 2000 nM | > 1260 nM | 
27 | O=C1C(c2ccc(Cl)c(Cl)c2)=CCN1c1ccc(OC(F)(F)F)c(OCCN2CCCCC2)c1 | > 1260 nM | > 3160 nM | > 10000 nM | 

— ChEMBL document CHEMBL1146011, “Diaryl substituted pyrrolidinones and pyrrolones as 5-HT2C inhibitors: synthesis and biological evaluation” (Bioorg Med Chem Lett, 2006)
